This test addresses T1, Factor XIIIa (Homo sapiens, UniProt P00488).
T1 construct: from tissue; host or cells: human plasma
T1 sequence (P00488 39-732 limits assumed): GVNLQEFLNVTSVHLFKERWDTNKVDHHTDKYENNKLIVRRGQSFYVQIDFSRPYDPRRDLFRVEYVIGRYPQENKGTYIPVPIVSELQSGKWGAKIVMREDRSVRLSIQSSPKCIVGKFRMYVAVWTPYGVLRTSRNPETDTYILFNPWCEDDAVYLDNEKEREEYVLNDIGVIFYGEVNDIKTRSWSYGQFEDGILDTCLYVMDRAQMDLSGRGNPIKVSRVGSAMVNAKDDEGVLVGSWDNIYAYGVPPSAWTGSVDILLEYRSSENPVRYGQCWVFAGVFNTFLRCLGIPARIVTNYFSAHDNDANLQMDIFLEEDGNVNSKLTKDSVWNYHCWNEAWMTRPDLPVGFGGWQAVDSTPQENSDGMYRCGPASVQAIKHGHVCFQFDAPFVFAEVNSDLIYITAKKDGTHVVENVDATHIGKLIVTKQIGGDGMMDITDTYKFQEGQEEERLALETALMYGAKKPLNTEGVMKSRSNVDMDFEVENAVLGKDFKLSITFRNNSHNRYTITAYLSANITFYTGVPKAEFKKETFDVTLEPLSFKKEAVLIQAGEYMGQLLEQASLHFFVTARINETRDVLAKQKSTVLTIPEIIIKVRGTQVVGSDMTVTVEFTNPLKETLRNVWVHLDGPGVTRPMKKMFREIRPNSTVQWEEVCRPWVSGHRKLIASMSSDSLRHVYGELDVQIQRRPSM
Kind of test: Factor XIIIa inhibitor assay (incorporation of 14C-putrescine into casein). Type of test: biochemical. As to conditions: for inhibition at 0.1 µM: @ 100 nM. Here is the method:
The Factor XIIIa inhibitor assay is based on the incorporation of ^14 C-putrescine into casein catalyzed by Factor XIIIa. The assay is carried out employing the procedure described in Methods in Enzymology, Vol. 45, Ch 15., pages 177-191 (1976) and using Factor XIII (F XIII) isolated from human plasma. The procedure is summarized briefly and schematically illustrated as follows: [drawing 9] Factor XIII assay mixtures are prepared by adding stepwise, appropriately prepared solutions of thrombin and dithiothreitol (DTT) to a mixture comprising Factor XIII at 140 μg/mL in glycerol/water and tris(hydroxymethyl)aminomethane hydrochloride (Tris.HCl). To a portion of the mixture is added calcium chloride as source of calcium ions required for enzyme activity and to the remaining mixture is added, instead of calcium ions, ethylenediaminetetraacetic acid (EDTA) which serves as a blank for background. A substrate mixture is prepared from ^14 C-putrescine and N,N-dimethylcasein. The assay tubes and control tubes are charged with the substrate mixture and incubated at 37° C. for 20 minutes. Samples are withdrawn from each tube, spotted onto a filter disk which is then immersed in ice cold trichloroacetic acid solution to precipitate the casein on the filter. The filter is then washed to remove unincorporated or free ^14 C-putrescine and after drying is counted for ^14 C-putrescine incorporated to casein from which percent activity and/or inhibition can be calculated.

The mark [1] stands for this setting: read-out: Percent inhibition (Molar concn).

Structures can show the parent of a compound that is named as a salt.

For orientation: inhibition means the percentage by which the read-out fell short of the control.

For the compound `CCC(=O)CSc1n(C)c(C)c(C)[n+]1C` [CH3, CH3, CH3, CH3, CH3, CF3 SO3^-], the inhibition at 0.1 µM under setting [1] is 93%.
`CCCc1c(CCC)[n+](C)c(SCC(C)=O)n1C` [H, CH3, C3 H7, C3 H7, CH3, CF3 SO3^-, 1,3-Dimethyl-4,5-di(n-propyl)-2-[(2-oxopropyl)thio]imidazolium trifluoromethylsulfonate]: the inhibition at 0.1 µM under setting [1] is 86%.
On to `CCCc1nc(SCC(C)=O)n(C)c1C` [H, CH3, CH3, C3 H7, --, HCl], for which the inhibition at 4 µM (@ 4 μM, read-out: Percent inhibition (Molar concn)) is 46%.
`CC(=O)CSc1nc(C)c(C)n1C` [H, CH3, CH3, CH3, --, HCl, 1,4,5-Trimethyl-2[(2-oxopropyl)thio]imidazole]: the inhibition at 3.7 µM (@ 3.7 μM, read-out: Percent inhibition (Molar concn)) was 76%.
In the case of `CC(=O)CSc1n(C)c(C)c(C)[n+]1C` [H, CH3, CH3, CH3, CH3, CF3 SO3^-, 1,3,4,5-tetramethyl-2[(2-oxopropyl)thio]imidazolium trifluoromethylsulfonate], the inhibition at 0.08 µM (@ 80 nM, read-out: Percent inhibition (Molar concn)) stood at 95%.
In the case of `CC(=O)CSc1n(C)c(C)c(C)[n+]1C.[Cl-]` [H, CH3, CH3, CH3, CH3, Cl^-, 1,3,4,5-Tetramethyl-2[(2-oxopropyl)thio]imidazolium chloride], where the note is “@ 80 nM”, the “Percent inhibition (Molar concn)” value stood at 95%.
In the case of `CC(=O)CSc1ncc(C)n1C` [H, CH3, CH3, H, --, HCl, 1,5-Dimethyl-2[(2-oxopropyl)thio]imidazole], the inhibition at 2 µM (@ 2 μM, read-out: Percent inhibition (Molar concn)) turned out to be 47%.
Consider `CC(=O)CSc1n(C)c(C)c[n+]1C` [H, CH3, CH3, H, CH3, CF3 SO3^-, 1,3,5-Trimethyl-2[(2-oxopropyl)thio]imidazolium trifluoromethylsulfonate], for which the inhibition at 0.1 µM under setting [1] came out at 90%.
`CC(=O)CSc1nccn1C` [H, CH3, H, H, --, --]: the inhibition at 0.15 µM (@ 0.15 μM, read-out: Percent inhibition (Molar concn)) was 40%.
In the case of `CC(=O)CSc1n(C)cc[n+]1C` [H, CH3, H, H, CH3, Cl^-], the inhibition at 0.313 µM (@ 313 nM, read-out: Percent inhibition (Molar concn)) turned out to be 67%.
On to `CC(=O)CSc1n(C)cc[n+]1C` [H, CH3, H, H, CH3, I^-], for which, for the setting “@ 110 nM, read-out: Percent inhibition (Molar concn)”, the inhibition at 0.11 µM is 44%.
Turning to `CC(=O)CSc1n(C)c(C(C)C)c(C(C)C)[n+]1C` [H, CH3, iPr, iPr, CH3, CF3 SO3^-], for the setting “@ 1.0 μM, read-out: Percent inhibition (Molar concn)”, the inhibition at 1 µM is 44%.

(Values after patent US4968713A, “Certain imidazole compounds as transglutaminase inhibitors” (Merck & Co., Inc., priority 1989, dated 1990).)
